Experimental findings from ChEMBL document CHEMBL1158673, “Bioactive kaurane diterpenoids from Annona glabra” (J Nat Prod, 1998) are described below.

What is called IC50 is the concentration at which inhibition is half-maximal. The low end stands for greater potency in that assay, the high end for weaker potency in that assay. A word on the inhibition: it is the change of the read-out against control, counted positive when it falls. A high value points to a response far below the control. As usually defined, the EC50 is the concentration needed to bring the measured effect to its halfway point.

The subject of data set [1] is H9. In words: Cytotoxicity against human H9 cells. The data set is classed as cell-based.
Data set [2] relates to Human immunodeficiency virus. As to the kind of experiment: Antiviral activity against HIV infected in human H9 cells assessed as viral replication. It counts as functional, organism-based. Particulars: for EC50: Human immunodeficiency virus 1, H9.
Data set [3] in a line: Therapeutic index, ratio of IC50 for human H9 cells to EC50 for HIV. It counts as cell-based. The settings on record: for Activity: human, h9; for therapeutic index: H9.
Data set [4] deals with Human immunodeficiency virus. In words: Inhibition of HIV reverse transcriptase at 33 ug/mL by scintillation counting.

The structures appear in SMILES notation. Converted amounts (≈) assume the structure as drawn. The source made the active and inactive calls. The rule behind the calls is not given here.

For the compound `CC1(C)CCC[C@]2(C)[C@@H]1CC[C@@]13C[C@H](CC[C@H]12)[C@@H](C(=O)O)C3`, in data set [1], the midpoint of inhibition, the IC50, lay at 40 µg/mL (≈ 131 µM). Moreover, the outcome in data set [2] was inactive. Further, the Activity result in data set [3] is on record as “Not Active”.
For `C[C@@]12CCC[C@@](C)(C(=O)O)[C@H]1CC[C@@]13C[C@H](CC[C@H]12)[C@@](O)(CO)C3`, the inhibition in data set [4] amounted to 46%.
Same read-out and setting: the same measure for `C[C@@]12CCC[C@@](C)(C=O)[C@H]1CC[C@@]13C[C@H](CC[C@H]12)[C@@H](C(=O)O)C3`: 14%.
`CC(=O)OC[C@]1(O)C[C@@]23CC[C@H]4[C@@](C)(CCC[C@@]4(C)C(=O)O)[C@@H]2CC[C@H]1C3`: the IC50 in data set [1] was 65 µg/mL (≈ 172 µM). Besides, the EC50 in data set [2] was determined as 85 µg/mL (≈ 225 µM). Further, the therapeutic index in data set [3] came out at 0.8.
The corresponding values for `COC(=O)[C@]1(OC(C)=O)C[C@@]23CC[C@H]4[C@@](C)(CCC[C@@]4(C)C=O)[C@@H]2CC[C@H]1C3` [ANNOGLABASIN A] are 15 µg/mL (≈ 38.4 µM), 10 µg/mL (≈ 25.6 µM) and 1.5.
Regarding `C=C1C[C@@]23CC[C@H]4[C@@](C)(CCC[C@@]4(C)C(=O)O)[C@@H]2CC[C@@H]1C3`, the inhibition in data set [4] is 1%.
Turning to `Cc1cn([C@H]2C[C@H](N=[N+]=[N-])[C@@H](CO)O2)c(=O)[nH]c1=O` [ZIDOVUDINE], in data set [2], the EC50 turned out to be 0.01 µg/mL (≈ 0.0374 µM). Further, in data set [3], the therapeutic index is 50000.
As to `C=C1C[C@@]23CC[C@@H]4[C@](C)(CO)CCC[C@@]4(C)[C@@H]2CC[C@H]1C3`, the inhibition in data set [4] was 7%.
Take `CC1(C)CCC[C@]2(C)[C@@H]1CC[C@@]13C[C@H](CC[C@H]12)[C@H](C(=O)O)C3`: the IC50 in data set [1] was determined as 32 µg/mL (≈ 105 µM). Moreover, the EC50 in data set [2] came to 24 µg/mL (≈ 78.8 µM). Moreover, in data set [3], the therapeutic index was 1.3.
The corresponding values for `COC(=O)[C@H]1C[C@@]23CC[C@H]4[C@@](C)(CCC[C@@]4(C)C=O)[C@@H]2CC[C@H]1C3` are 20 µg/mL (≈ 60.2 µM), 5 µg/mL (≈ 15 µM) and 4.
For the compound `CC(=O)OC[C@]1(C)CCC[C@]2(C)[C@@H]1CC[C@@]13C[C@H](CC[C@H]12)[C@@H](C(=O)O)C3` [ANNOGLABASIN B], in data set [1], it took 40 µg/mL (≈ 110 µM) to reach half-maximal inhibition (IC50). In data set [2], the outcome was inactive. Moreover, the Activity entry in data set [3] was “Not Active”.
